{
  "source": "patent US11680298B2",
  "about": "“Method of identifying risk of cancer and therapeutic options” (Agency for Science, Technology and Research, priority 2016, dated 2023)",
  "key": {"[1]": {"tested_on": "HCC1937", "test": "Tumoursphere growth, HCC1937", "assay_type": "cell-based", "conditions": "HCC1937, negative for 1q21.3 amplification, high phospho-IRAK1 and phospho-JAK2", "description": "(§1) For this purpose, the 1q21.3 gene amplification in a series of breast cancer cell lines was profiled using ddPCR (FIG. 6A). Of note, 1q21.3 status in these cell lines was in general correlated with phospho-IRAK1 and expression of S100A8/9 (FIG. 6B and FIG. 14A), but not with phospho-JAK2 status (FIG. 6B).\n(§2) Mammosphere Formation Assay PDX-derived tumoursphere cells were trypsinized and passed through 40 μm cell strainer to achieve single cell suspensions. 3×10^4 cells were seeded in 6-well ultra-low attachment plates (Corning, N.Y.; CLS3471) in serum-free DMEM/F12 supplemented with N2 and B27 (Gibco, Grand Island, N.Y.), 20 ng/ml epidermal growth factor (MACS, Auburn, Calif.), 20 ng/ml basic fibroblast growth factor (MACS, Auburn, Calif.), 0.2 μM Thiazovivin ([…] Technologies, Vancouver, BC) and penicillin/streptomycin (Gibco, Carlsbad, Calif.). For breast cancer cell lines and MCF10A cell line, 3×10^4 cells were seeded in 6-well ultra-low attachment plates in Mammocult medium (Stem Cell Technologies, Vancouver, BC, Canada), supplemented with fresh hydrocortisone (0.5 μg/ml) and heparin (1:500). […] After 7-9 days, mammospheres were stained with INT (2-(4-iodophenyl)-3-(4-nitrophenyl)-5-phenyl-2H-tetrazolium chloride, Sigma-Aldrich) and quantified. Imaging and quantification were done using GelCount apparatus and associated software (Oxford Optronix, Abingdon, UK). […]"}, "[2]": {"tested_on": "S100A7/8/9", "test": "Real-time PCR analysis of S100A7/8/9 gene expression in cells", "assay_type": "cell-based, human", "description": "Total RNA was isolated using TRIzol® reagent (Life Technologies, Carlsbad, Calif.; 15596026) and purified with Direct-zolTM RNA MiniPrep (Zymo Research, Irvine, Calif.; […]). Reverse transcription and quantitative PCR assays were performed using High-Capacity cDNA Reverse Transcription Kit (Applied Biosystems, Carlsbad, Calif.; 4368813) and KAPA SyBr Fast qPCR kit (KAPA Biosystems, Wilmington, Mass.; KK4601). For quantification of mRNA levels, GAPDH level was used as an internal control. All reactions were analysed in an Applied Biosystems PRISM 7500 Fast Real-Time PCR system in 96-well plate format. For RNA extraction of xenograft tumours, snap frozen samples were resuspended in TRIzol® reagent and homogenized with QIAGEN TissueLyzer II as described by the manufacturer, followed by purification with Direct-zolITM RNA MiniPrep."}, "[3]": {"target": "IRAK1 (Homo sapiens, UniProt P51617)", "sequence (P51617 whole entry)": "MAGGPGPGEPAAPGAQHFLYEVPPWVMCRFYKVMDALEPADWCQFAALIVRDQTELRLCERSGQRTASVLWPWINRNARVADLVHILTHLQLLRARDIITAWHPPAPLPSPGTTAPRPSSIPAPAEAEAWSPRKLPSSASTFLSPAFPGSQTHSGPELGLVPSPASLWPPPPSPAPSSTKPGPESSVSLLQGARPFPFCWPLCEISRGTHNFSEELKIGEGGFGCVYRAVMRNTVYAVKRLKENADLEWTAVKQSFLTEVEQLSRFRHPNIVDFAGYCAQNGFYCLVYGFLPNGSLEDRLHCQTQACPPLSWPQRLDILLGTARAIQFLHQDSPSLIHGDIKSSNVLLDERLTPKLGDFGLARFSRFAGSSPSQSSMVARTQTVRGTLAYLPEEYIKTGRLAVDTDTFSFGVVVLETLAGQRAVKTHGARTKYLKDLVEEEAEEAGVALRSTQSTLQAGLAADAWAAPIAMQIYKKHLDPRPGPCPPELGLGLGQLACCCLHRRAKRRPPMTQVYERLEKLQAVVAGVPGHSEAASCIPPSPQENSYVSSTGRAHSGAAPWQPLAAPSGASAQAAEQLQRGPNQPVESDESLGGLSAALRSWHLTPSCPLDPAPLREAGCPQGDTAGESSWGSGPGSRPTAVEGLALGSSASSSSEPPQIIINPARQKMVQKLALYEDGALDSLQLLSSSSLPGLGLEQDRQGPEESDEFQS", "test": "Western blot of phospho-IRAK1 in HCC70 xenograft", "assay_type": "in vivo, NOD-SCID mice", "design": "For protein extraction of xenograft tumours, snap frozen samples were resuspended in RIPA buffer; from tissue; host or cells: HCC70 xenograft tumour from NOD-SCID mice", "conditions": "HCC70 xenograft (n=4) treated with pacritinib", "description": "(§3) Mice were then dosed daily by oral gavage for 21 days. Tumour growth was monitored for 1 month.\nAll immunoblots shown in this specification represent at least two independent experiments. In brief, cells were washed with PBS and lysed in RIPA buffer supplemented with protease and phosphatase inhibitors and further sonicated using an XL2000 Microson Ultrasonice Processor (Misonix). Equal amounts of protein extract were separated on SDS-polyacrylamided gels and transferred to PVDF membranes. Membranes were further blocked with 5% milk or BSA, and then probed with the following antibodies: anti-IRAK1 was purchased from Santa Cruz Biotechnology (Santa Cruz, Calif.; sc-7883), anti-phospho-IRAK1 (T209) was purchased from Assay Biotech (Sunnyvale, Calif.; A1074), anti-JAK2 (Danvers, Mass.; #3230) and anti-phospho-JAK2 ([…]) (Danvers, Mass.: #3774) were purchased from Cell Signaling Technology, anti-actin was purchased from Sigma Aldrich CA; A5441). For protein extraction of xenograft tumours, snap frozen samples were resuspended in RIPA buffer supplemented with protease and phosphatase inhibitors and homogenized with QIAGEN TissueLyzer II as described by the manufacturer, followed by immunoblotting as described above."}, "[4]": {"tested_on": "MB231 tumourspheres", "test": "Mammosphere (tumoursphere) formation assay, MB231", "assay_type": "cell-based", "conditions": "MB231 cell line", "description": "(§4) Mammosphere Formation Assay PDX-derived tumoursphere cells were trypsinized and passed through 40 μm cell strainer to achieve single cell suspensions. 3×10^4 cells were seeded in 6-well ultra-low attachment plates (Corning, N.Y.; CLS3471) in serum-free DMEM/F12 supplemented with N2 and B27 (Gibco, Grand Island, N.Y.), 20 ng/ml epidermal growth factor (MACS, Auburn, Calif.), 20 ng/ml basic fibroblast growth factor (MACS, Auburn, Calif.), 0.2 μM Thiazovivin ([…] Technologies, Vancouver, BC) and penicillin/streptomycin (Gibco, Carlsbad, Calif.). For breast cancer cell lines and MCF10A cell line, 3×10^4 cells were seeded in 6-well ultra-low attachment plates in Mammocult medium (Stem Cell Technologies, Vancouver, BC, Canada), supplemented with fresh hydrocortisone (0.5 μg/ml) and heparin (1:500). Mammospheres were maintained at 37° C. with 5% CO2 and topped up with medium every 3 days. After 7-9 days, mammospheres were stained with INT (2-(4-iodophenyl)-3-(4-nitrophenyl)-5-phenyl-2H-tetrazolium chloride, Sigma-Aldrich) and quantified. Imaging and quantification were done using GelCount apparatus and associated software (Oxford Optronix, Abingdon, UK). […] Cell Proliferation Assay"}, "[5]": {"tested_on": "HCC70 xenograft tumours", "test": "In vivo pacritinib sensitivity test, HCC70 orthotopic xenograft", "design": "species or system NOD-SCID mice", "conditions": "1q21.3-amplified HCC70; 50, 100 and 150 mg/kg pacritinib daily by oral gavage for 21 days"}, "[6]": {"tested_on": "MB468 tumourspheres", "test": "Mammosphere (tumoursphere) formation assay, MB468", "assay_type": "cell-based", "conditions": "MB468 cell line", "description": "as §4"}, "[7]": {"tested_on": "PDX-derived tumourspheres", "test": "Mammosphere (tumoursphere) formation assay, PDX-derived tumourspheres", "assay_type": "cell-based, human", "conditions": "four different PDX-derived tumourspheres", "description": "as §4"}, "[8]": {"tested_on": "S100A7/8/9", "test": "Real time RT-PCR of S100A7/8/9 expression in HCC70 xenograft", "assay_type": "in vivo, NOD-SCID mice", "conditions": "HCC70 xenograft (n=4) treated with pacritinib", "description": "as §3\nTotal RNA was isolated using TRIzol® reagent (Life Technologies, Carlsbad, Calif.; 15596026) and purified with Direct-zol™ RNA MiniPrep (Zymo Research, Irvine, Calif.; R2050). Reverse transcription and quantitative PCR assays were performed using High-Capacity cDNA Reverse Transcription Kit (Applied Biosystems, Carlsbad, Calif.; 4368813) and KAPA SyBr Fast qPCR kit (KAPA Biosystems, Wilmington, Mass.; KK4601). For quantification of mRNA levels, GAPDH level was used as an internal control. All reactions were analysed in an Applied Biosystems PRISM 7500 Fast Real-Time PCR system in 96-well plate format. For RNA extraction of xenograft tumours, snap frozen samples were resuspended in TRIzol® reagent and homogenized with QIAGEN TissueLyzer II as described by the manufacturer, followed by purification with Direct-zolI™ RNA MiniPrep."}, "[9]": {"tested_on": "ER positive and ER negative breast cancer cell lines tumourspheres", "test": "Tumoursphere growth in breast cancer cell lines with or without 1q21.3 amplification", "assay_type": "cell-based", "conditions": "increasing dose of pacritinib", "description": "as §1, §2"}, "[10]": {"tested_on": "MB231 tumours", "test": "In vivo pacritinib sensitivity test, MB231 orthotopic xenograft", "design": "species or system NOD-SCID mice", "conditions": "1q21.3 non-amplified MB231; 50, 100 and 150 mg/kg pacritinib daily by oral gavage for 21 days"}, "[11]": {"tested_on": "EL12-58 PDX tumours", "test": "Neoadjuvant breast cancer PDX model of tumour recurrence", "assay_type": "in vivo, NOD-SCID mice", "conditions": "after paclitaxel-induced regression and surgery; 20 mg/kg paclitaxel, 150 mg/kg pacritinib or both"}},
  "note": "Entries after “also recorded” stand apart in the source; their conditions may differ.",
  "data": [
    {"compound": "C1=C/COCc2cc(ccc2OCCN2CCCC2)Nc2nccc(n2)-c2cccc(c2)COC/1", "note": "[pacritinib]", "values": [
      {"measurement": "sensitivity to pacritinib", "setting": "[1]", "value": "sensitive to pacritinib treatment"},
      {"measurement": "expression of S100A7/8/9", "setting": "[2]; MB468 cells, 24 hr pacritinib treatment", "value": "reduced the expression of S100A7/8/9 in MB468 cells in a dose-dependent manner"},
      {"measurement": "S100A7 expression", "setting": "[2]; across the cell models tested", "value": "seemed to be cell specific"},
      {"measurement": "expressions of S100A8 and S100A9", "setting": "[2]; across the cell models tested", "value": "consistently reduced"},
      {"measurement": "expression of S100A7/8/9", "setting": "[2]; patient-derived tumoursphere cells, 24 hr, pacritinib 2.5 μM", "value": "reduced expression of S100A7/8/9"},
      {"measurement": "phospho-IRAK1 level in xenograft", "setting": "[3]", "value": "downregulation of phospho-IRAK1"},
      {"measurement": "number of tumourspheres", "setting": "[4]", "value": "little effect"},
      {"measurement": "tumour growth", "setting": "[5]", "value": "substantial inhibition in tumour growth"},
      {"measurement": "number of tumourspheres", "setting": "[6]", "value": "strong tumoursphere inhibitory effect"},
      {"measurement": "tumoursphere growth", "setting": "[7]", "value": "strong tumoursphere growth inhibition"},
      {"measurement": "S100A7/8/9 expression in xenograft", "setting": "[8]", "value": "downregulation"},
      {"measurement": "tumoursphere growth, 1q21.3 amplified versus non-amplified cell lines", "setting": "[9]", "value": "preferential growth inhibition of breast cancer cells containing amplified S100A8 and/or S100A9 genes; also recorded: more effective in impairing tumoursphere growth in cancer cell lines positive for 1q21.3 amplification compared to negative cell lines; also recorded: more sensitive to pacritinib treatment compared to cancer cells without 1q21.3 amplification"},
      {"measurement": "tumour growth", "setting": "[10]", "value": "no obvious effect"},
      {"measurement": "tumour regrowth after surgical removal of residual tumour", "setting": "[11]", "value": "slowed down"}
    ]}
  ]
}
